Data on three molecules can be found in patent US6117878A, “8-phenyl- or 8-cycloalkyl xanthine antagonists of A2B human adenosine receptors” (priority 1998, dated 2000).

Entries after “also recorded” stand apart in the source; their conditions may differ.

For data set [1], the target named is T1, recombinant human A3 adenosine receptors (Homo sapiens, UniProt P0DMS8).
T1 construct: expressed in transfected cells; host or cells: cells expressing the recombinant receptor
T1 sequence (P0DMS8 1-318): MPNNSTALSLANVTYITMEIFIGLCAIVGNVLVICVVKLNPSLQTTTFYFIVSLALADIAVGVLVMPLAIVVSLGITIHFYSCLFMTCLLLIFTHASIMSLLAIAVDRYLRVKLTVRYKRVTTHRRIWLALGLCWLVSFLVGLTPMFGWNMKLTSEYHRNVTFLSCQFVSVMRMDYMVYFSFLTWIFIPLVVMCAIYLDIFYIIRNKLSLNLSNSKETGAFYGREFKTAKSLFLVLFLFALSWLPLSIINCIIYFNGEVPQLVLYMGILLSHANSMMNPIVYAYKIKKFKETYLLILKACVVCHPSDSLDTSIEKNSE
The data set is described as follows: Competition binding screen, A3 (Table 1). An excerpt:
(§1) A series of compounds was screened to identify potent A2B selective antagonists. This was done in competition binding assays using recombinant human A1, A2A, A2B or A3 adenosine receptors, similar to that illustrated in FIGS. 2A and 2B.

The target in data set [2] is T2, recombinant human A2A adenosine receptors (Homo sapiens, UniProt P29274).
T2 construct: expressed in transfected cells
T2 sequence (P29274 whole entry): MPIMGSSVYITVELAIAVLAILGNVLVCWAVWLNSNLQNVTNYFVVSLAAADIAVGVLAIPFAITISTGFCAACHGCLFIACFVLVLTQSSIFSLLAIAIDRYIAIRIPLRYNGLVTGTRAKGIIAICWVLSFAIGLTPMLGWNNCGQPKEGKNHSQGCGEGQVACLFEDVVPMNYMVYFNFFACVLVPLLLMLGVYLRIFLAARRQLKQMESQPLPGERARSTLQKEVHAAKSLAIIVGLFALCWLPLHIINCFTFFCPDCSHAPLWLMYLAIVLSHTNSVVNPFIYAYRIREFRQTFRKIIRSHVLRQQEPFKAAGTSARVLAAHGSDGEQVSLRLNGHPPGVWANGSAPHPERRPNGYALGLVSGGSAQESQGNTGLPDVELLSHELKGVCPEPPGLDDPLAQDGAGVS
The experiment in a line: Competition binding screen, A2A (Table 1). From the text:
(§2) This was done in competition binding assays using recombinant human A1, A2A, A2B or A3 adenosine receptors, similar to that illustrated in FIGS. 2A and 2B.

Data set [3] has as its target T3, recombinant human A2B adenosine receptors (Homo sapiens, UniProt P29275).
T3 sequence (P29275 1-332): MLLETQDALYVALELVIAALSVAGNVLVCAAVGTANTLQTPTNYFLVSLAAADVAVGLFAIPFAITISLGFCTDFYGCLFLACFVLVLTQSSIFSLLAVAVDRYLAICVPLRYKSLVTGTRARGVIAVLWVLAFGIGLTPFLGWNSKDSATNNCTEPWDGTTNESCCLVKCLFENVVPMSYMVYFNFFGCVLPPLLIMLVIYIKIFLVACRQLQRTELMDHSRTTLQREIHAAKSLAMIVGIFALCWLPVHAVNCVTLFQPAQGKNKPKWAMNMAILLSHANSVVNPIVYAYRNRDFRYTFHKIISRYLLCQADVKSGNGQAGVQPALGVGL
The data set is described as follows: Competition binding screen, A2B (Table 1). Further details: expressed in transfected cells; host or cells: cells expressing the recombinant receptor.
Description: as §2

Data set [4] addresses T4, recombinant human A1 adenosine receptors (Homo sapiens, UniProt P30542).
T4 construct: expressed in transfected cells
T4 sequence (P30542 1-326): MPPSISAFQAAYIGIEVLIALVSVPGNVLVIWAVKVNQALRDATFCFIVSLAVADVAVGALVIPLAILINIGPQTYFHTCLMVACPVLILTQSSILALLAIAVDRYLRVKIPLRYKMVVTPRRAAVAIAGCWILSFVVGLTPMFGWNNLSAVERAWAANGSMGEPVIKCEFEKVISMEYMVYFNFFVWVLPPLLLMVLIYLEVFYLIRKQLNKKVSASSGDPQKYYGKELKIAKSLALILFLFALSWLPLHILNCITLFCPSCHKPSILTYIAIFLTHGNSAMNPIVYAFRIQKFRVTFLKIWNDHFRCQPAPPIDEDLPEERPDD
The experiment in a line: Competition binding screen, A1 (Table 1).
Description: as §1

Data set [5] deals with T1, recombinant human A3 adenosine receptors. The data set is described as follows: Competition radioligand binding to rhA3 adenosine receptors (Example 2). Particulars: other subtypes than A2B; FIG. 2 and Table 1.
The test system of data set [6] is adenosine receptors. Conditions: cited from earlier work.
For data set [7], the target named is T3, recombinant human A2B adenosine receptors. The experiment in a line: IP3 generation in HEK 293 cells transfected with recombinant human A2B adenosine receptors.
Data set [8] has the same target. The data set is described as follows: Competition for [3H]DPX binding to rhA2B adenosine receptors (Example 2). More on the design: expressed in transfected cells; host or cells: cells expressing the recombinant receptor.
Data set [9] has the same target. The experiment in a line: Calcium mobilization in HEK-293 cells transfected with recombinant human A2B adenosine receptors (FURA). It is filed as cell-based. Further details: expressed in transfected cells; host or cells: cells expressing the recombinant receptor. On the procedure: The activation of the phospholipase C pathway leads to intracellular calcium mobilization.
Calcium mobilization was measured in cells preloaded with FURA.

The target in data set [10] is T5, rhA2B adenosine receptors (Homo sapiens, UniProt P29275).
T5 construct: expressed in transfected cells; host or cells: HEK 293 cells, stably transfected
T5 sequence (P29275 1-332): T3 sequence (P29275 1-332)
The data set is described as follows: NECA-stimulated cyclic AMP accumulation in HEK 293 cells transfected with rhA2B adenosine receptors, Schild analysis. It is filed as cell-based. Particulars: cAMP, cells expressing rhA2B. An excerpt: Agonists were used to modulate cAMP in HEK 293 cells stably transfected the rhA2B adenosine receptors or rhA3 adenosine receptors.

Data set [11] relates to human HMC-1 mast cells. The experiment in a line: Cyclic AMP accumulation in HMC-1 mast cells (radioimmunoassay). Type of data set: cell-based. Conditions: FIG. 1B. As to the method:
Functional Responses Of Human HMC-1 Mast Cells to NECA and IB-MECA
In tests as described in "Canine Mast Cell Adenosine Receptors: Cloning and Expression of the A3 Receptor and Evidence that Degranulation is Mediated by the A2B Receptor," Molecular Pharmacology, 52:1-15 (1997) to, Auchampapch et al., that reference being incorporated herein by reference, intact cells were treated with the A3-selective agonist IB-MECA and the nonselective agonist NECA.
FIGS. 1A and 1B show (A) Intracellular Ca^2+ accumulation measured in cells pretreated with the Ca^2+ -sensitive fluorescent reporter, FURA and (B) Cyclic AMP accumulation measured by radioimmunoassay. The results are typical of triplicate experiments.

The test system of data set [12] is human HMC-1 mast cells. The data set is described as follows: Intracellular Ca2+ accumulation in HMC-1 mast cells (FURA). It is filed as cell-based. Particulars: FIG. 1A.

For `O=C(O)C=Cc1ccc(-c2nc3c([nH]2)c(=O)n(CC2CCCCC2)c(=O)n3CC2CCCCC2)cc1` [BW-A493], the Ki in data set [1] came out at 0.922 ± 0.399 µM; in [2] it was 1.52 ± 0.797 µM; in [3], 0.198 ± 0.052 µM; in data set [4] it was 4.98 ± 0.553 µM.

In the case of `CCCn1c(=O)[nH]c(=O)c2[nH]cnc21` [enprofylline], the “Antagonism of other adenosine receptor subtypes” value in [5] was “much weaker antagonist of other adenosine receptor subtypes”. Moreover, the “Binding to adenosine receptors (literature)” value in [6] (Lunell et al.) was “bind weakly to adenosine receptors”. For the same molecule, the “Block of adenosine receptors (literature)” value in data set [6] (enprofylline: therapeutic concentration range of 20-50 uM, examined at A1 and A2A only) is recorded as “found not to block adenosine receptors”. Moreover, the Ki in data set [4] amounted to 156 µM. Also, the “Block of increase in IP3 produced by 10 μM NECA” value in data set [7] (250 μM antagonist) is “able to block the increase in IP3”. Moreover, the “Affinity for human A2B versus human A3 adenosine receptors” value in data set [8] (competition binding, FIGS. 2A and 2B) is given as “higher affinities for human A2B adenosine receptors than for human A3 adenosine receptors”. The “Block of recombinant human A2B adenosine receptors” value in data set [8] (therapeutic concentration range of 20-50 μM, FIG. 2 and Table 1) is given as “blocks recombinant human A2B adenosine receptors”. In addition, the “Block of Ca2+ response induced by 1 μM NECA” value in [9] (100 μM antagonist) is reported as “totally blocks”.

Turning to `CCNC(=O)[C@H]1O[C@@H](n2cnc3c(N)ncnc32)[C@H](O)[C@@H]1O` [NECA, 5-N-ethylcarboxamidoadenosine], the “Functional response to agonist” value in [10] is recorded as “dose-dependent functional response”. In data set [11] (worded as canine mast cells), the “Stimulation of cyclic AMP accumulation” value was “stimulates canine mast cells to mobilize calcium and to accumulate cyclic AMP”. In addition, in data set [11] (human mast cell line HMC-1), the “Cyclic AMP accumulation” value is “stimulates human mast cells to mobilize calcium and to accumulate cyclic AMP; also recorded: causes intracellular Ca^2+ and cyclic AMP accumulation”. Also, in data set [7] (NECA at 10 μM, rhA2B transfected HEK 293), the “Increase in IP3 formation” value worked out at 3.5 fold. Moreover, the “Stimulation of calcium mobilization” value in data set [12] (worded as canine mast cells) is “stimulates canine mast cells to mobilize calcium”. In addition, the “Intracellular Ca2+ accumulation / calcium mobilization” value in data set [12] (human mast cell line HMC-1) was “stimulates human mast cells to mobilize calcium; also recorded: causes intracellular Ca^2+ and cyclic AMP accumulation”. In addition, the “Increase in intracellular Ca2+ content” value in data set [9] (human A2B transfected cells) is recorded as “dose-dependent increase in intracellular Ca^2+ content”.
